Reference: ChEMBL document CHEMBL1201862, “PubChem BioAssay data set” (2004)
The source made the active and inactive calls.

Tests used:
[1] = target: T1, Replicative DNA helicase DnaB (Mycobacterium tuberculosis, UniProt P9WMR3); experiment: DnaB intein splicing inhibitors, dose response, biochemical, cell-free fluorescence (AID 449749); type: functional
T1 sequence (P9WMR3 whole entry): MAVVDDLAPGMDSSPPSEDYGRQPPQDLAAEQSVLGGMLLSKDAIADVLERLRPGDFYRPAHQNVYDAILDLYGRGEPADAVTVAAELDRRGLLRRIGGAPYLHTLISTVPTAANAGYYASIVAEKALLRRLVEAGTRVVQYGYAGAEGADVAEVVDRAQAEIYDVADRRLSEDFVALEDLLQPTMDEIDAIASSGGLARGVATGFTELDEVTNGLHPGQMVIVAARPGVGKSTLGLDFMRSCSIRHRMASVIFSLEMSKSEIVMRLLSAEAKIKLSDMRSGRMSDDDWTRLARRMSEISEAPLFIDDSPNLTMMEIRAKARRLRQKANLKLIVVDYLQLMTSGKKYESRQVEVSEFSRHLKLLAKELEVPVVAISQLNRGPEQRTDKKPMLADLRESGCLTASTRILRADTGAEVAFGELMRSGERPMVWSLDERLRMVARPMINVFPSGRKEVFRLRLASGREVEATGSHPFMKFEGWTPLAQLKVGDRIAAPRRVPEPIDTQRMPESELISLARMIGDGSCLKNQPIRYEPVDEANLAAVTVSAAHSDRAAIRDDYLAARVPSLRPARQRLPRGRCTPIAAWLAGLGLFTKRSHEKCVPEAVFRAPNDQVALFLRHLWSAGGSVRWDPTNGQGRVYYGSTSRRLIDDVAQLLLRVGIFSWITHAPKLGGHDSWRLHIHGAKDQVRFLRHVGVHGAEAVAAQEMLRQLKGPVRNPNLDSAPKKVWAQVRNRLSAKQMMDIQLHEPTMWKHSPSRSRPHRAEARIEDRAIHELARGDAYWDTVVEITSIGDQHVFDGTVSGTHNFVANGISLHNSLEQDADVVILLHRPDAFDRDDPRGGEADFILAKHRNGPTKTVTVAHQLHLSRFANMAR

Protein RecA = target: T2, Protein RecA (Mycobacterium tuberculosis, UniProt P9WHJ3); experiment: Fluorescence Cell-Free Homogeneous Dose Retest to Identify Inhibitors of RecA-Intein Splicing Activity. [Related pubchem assays (depositor defined):AID2097, AID2223, AID489010, AID492950]; type: functional
T2 sequence (P9WHJ3 whole entry): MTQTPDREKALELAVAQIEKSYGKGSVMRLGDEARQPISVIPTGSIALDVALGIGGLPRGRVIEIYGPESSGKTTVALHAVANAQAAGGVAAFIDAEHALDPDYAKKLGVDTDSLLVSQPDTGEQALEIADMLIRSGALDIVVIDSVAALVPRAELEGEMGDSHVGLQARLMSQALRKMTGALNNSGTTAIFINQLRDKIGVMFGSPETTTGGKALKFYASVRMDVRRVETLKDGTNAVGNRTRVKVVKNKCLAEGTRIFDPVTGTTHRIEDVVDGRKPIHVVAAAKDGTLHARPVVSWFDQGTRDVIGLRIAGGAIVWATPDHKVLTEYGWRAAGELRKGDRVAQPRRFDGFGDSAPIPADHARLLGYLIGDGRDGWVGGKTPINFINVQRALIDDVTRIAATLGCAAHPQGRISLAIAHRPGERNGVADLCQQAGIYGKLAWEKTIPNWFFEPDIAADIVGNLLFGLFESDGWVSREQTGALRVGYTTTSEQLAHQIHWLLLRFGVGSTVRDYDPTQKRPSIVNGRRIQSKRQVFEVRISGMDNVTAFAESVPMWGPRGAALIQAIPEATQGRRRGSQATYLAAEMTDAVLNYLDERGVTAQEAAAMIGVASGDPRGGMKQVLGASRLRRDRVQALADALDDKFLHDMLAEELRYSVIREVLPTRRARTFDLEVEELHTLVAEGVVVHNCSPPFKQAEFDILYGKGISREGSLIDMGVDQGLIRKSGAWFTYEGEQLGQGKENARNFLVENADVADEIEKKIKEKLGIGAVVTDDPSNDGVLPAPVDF

[2] = Intein inhibitors as potential Tuberculosis drugs, a cytotoxicity screen. [Related pubchem assays (depositor defined):AID2221, AID2223, AID434968, AID435010, AID449749, AID449750, AID489010]; type: functional
[3] = target: Signal transducer and activator of transcription 1-alpha/beta (Homo sapiens, UniProt P42224); experiment: STAT3 inhibitors, late-stage profile, late-stage follow-up, cell-based, STAT1 panel, qPCR, cytotoxicity, panel member STAT1 Inhibition (AID 2078)
Sequence of Signal transducer and activator of transcription 1-alpha/beta (P42224 whole entry): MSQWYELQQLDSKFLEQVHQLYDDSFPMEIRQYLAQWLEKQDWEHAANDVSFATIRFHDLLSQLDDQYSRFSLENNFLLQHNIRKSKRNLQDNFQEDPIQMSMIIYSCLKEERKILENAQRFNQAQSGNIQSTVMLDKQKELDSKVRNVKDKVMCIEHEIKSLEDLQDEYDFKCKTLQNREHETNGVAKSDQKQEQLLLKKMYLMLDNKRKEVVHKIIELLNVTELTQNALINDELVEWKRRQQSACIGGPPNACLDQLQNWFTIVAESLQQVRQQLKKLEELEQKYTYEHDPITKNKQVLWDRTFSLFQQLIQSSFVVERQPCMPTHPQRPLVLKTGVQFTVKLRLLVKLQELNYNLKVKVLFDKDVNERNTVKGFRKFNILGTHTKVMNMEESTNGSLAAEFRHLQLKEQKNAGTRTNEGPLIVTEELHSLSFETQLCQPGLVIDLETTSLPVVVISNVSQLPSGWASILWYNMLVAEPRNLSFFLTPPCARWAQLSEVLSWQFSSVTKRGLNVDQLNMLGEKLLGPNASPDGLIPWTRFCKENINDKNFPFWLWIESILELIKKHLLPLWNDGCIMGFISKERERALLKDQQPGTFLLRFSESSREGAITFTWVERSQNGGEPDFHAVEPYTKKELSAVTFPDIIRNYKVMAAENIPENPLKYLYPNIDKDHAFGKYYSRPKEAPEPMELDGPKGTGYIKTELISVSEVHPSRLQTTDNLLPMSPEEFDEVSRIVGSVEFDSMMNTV

[4] = target: Signal transducer and activator of transcription 3 (Homo sapiens, UniProt P40763); experiment: STAT3 inhibitors, late-stage profile, late-stage follow-up, cell-based, STAT1 panel, qPCR, cytotoxicity, panel member STAT3 Inhibition (AID 2078)
Sequence of Signal transducer and activator of transcription 3 (P40763 whole entry, the tested form may be a part): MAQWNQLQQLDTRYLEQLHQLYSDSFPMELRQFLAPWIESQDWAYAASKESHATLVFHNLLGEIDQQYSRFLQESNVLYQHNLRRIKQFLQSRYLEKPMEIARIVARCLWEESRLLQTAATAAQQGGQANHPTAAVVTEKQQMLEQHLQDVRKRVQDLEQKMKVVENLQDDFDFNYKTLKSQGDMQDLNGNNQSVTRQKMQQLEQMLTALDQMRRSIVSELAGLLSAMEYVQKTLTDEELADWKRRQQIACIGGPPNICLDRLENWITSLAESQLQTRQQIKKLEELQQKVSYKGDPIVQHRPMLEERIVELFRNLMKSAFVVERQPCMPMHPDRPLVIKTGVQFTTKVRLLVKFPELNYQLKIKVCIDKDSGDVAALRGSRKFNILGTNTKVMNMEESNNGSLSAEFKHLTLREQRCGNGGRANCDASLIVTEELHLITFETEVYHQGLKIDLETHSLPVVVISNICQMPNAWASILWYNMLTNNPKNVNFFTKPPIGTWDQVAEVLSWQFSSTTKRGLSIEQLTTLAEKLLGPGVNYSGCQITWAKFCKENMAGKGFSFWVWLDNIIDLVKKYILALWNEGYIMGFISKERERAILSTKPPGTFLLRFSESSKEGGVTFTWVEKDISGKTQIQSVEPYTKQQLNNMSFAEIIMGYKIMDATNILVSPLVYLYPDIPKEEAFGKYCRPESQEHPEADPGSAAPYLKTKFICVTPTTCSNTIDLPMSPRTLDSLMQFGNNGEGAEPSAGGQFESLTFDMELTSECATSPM

[5] = target: Nucleotide-binding oligomerization domain-containing protein 1 (Homo sapiens, UniProt Q9Y239); experiment: SAR analysis of compounds that inhibit NOD1 - Set 3. [Related pubchem assays (depositor defined):AID1566, AID1575, AID1578, AID1849, AID1852, AID2333, AID2335, AID2466]; type: functional
[6] = target: Nucleotide-binding oligomerization domain-containing protein 2 (Homo sapiens, UniProt Q9HC29); experiment: NOD2 signaling inhibitors, analog potency, SAR follow-up, cell-based, set 3 (AID 2799); type: functional
Tumor necrosis factor = Tumor necrosis factor (Homo sapiens, UniProt P01375); experiment: TNFa-triggered NF-kB activation inhibitors, SAR follow-up, cell-based, set 3 (AID 2801); type: functional
Sequence of Tumor necrosis factor (P01375 whole entry): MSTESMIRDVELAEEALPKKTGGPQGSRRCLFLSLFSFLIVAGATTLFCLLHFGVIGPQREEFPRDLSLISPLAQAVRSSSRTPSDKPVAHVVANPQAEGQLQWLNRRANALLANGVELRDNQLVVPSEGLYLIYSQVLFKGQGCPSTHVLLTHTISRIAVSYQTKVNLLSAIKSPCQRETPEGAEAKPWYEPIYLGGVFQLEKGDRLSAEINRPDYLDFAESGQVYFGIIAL

HEK293 = experiment: SAR analysis of compounds that are cytotoxic to HEK293 - Set 3. [Related pubchem assays (depositor defined):AID1575, AID1578, AID1848, AID1849, AID2001, AID2333, AID2334, AID2335, AID2337, AID2469]; type: functional, cell-based; settings: Homo sapiens
H9c2 = experiment: cells; type: functional, cell-based; settings: Rattus norvegicus, H9c2, Myocardium;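 further: confirmatory concentration-response retest of ultra-high-throughput screening hits for modulation of myocardial damage; cell death induced by hydrogen peroxide oxidative stress; compound pretreatment for 60 min then peroxide exposure for 2 h; potency is for protecting the cells against peroxide damage rather than for killing them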
Coagulation factor XII = target: T3, Coagulation factor XII (Homo sapiens, UniProt P00748); experiment: Factor XIIa Dose Response Confirmation from Single Well HTS. [Related pubchem assays (depositor defined):AID701]; type: functional
T3 sequence (P00748 whole entry): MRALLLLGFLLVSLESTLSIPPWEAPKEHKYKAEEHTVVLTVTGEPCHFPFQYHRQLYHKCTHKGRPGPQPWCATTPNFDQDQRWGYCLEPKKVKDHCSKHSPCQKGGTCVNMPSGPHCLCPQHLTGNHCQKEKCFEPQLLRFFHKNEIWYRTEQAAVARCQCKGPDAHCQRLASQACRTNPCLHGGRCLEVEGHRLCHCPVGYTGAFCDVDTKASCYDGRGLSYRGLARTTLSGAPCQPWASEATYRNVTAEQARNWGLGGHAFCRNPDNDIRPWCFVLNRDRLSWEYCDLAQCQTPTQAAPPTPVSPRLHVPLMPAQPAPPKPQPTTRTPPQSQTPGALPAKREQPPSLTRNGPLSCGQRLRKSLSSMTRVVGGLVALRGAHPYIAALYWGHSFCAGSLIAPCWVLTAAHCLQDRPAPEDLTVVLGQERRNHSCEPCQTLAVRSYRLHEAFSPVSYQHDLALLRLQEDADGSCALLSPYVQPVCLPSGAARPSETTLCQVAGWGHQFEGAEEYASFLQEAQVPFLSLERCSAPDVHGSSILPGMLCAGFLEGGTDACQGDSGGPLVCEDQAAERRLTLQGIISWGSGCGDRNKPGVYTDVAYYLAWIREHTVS

[7] = target: T4, Kappa-type opioid receptor (Homo sapiens, UniProt P41145); experiment: SAR analysis of small molecule antagonists of the kappa opioid receptor via a luminescent beta-arrestin assay - Set 4. [Related pubchem assays (depositor defined):AID1777, AID1778, AID1785, AID1786, AID1966, AID2133, AID2136, AID2285]; type: functional
T4 sequence (P41145 whole entry): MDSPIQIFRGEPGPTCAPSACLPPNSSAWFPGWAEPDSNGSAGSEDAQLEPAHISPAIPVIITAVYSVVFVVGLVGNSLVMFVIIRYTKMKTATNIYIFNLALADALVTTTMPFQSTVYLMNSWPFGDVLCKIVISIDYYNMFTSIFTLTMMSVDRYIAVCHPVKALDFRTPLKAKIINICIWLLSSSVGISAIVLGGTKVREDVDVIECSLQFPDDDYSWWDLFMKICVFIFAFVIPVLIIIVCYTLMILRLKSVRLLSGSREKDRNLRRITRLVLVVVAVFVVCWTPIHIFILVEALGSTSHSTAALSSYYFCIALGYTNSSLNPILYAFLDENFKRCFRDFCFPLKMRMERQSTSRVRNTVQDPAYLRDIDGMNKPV

[8] = target: T4, Kappa-type opioid receptor; experiment: SAR analysis of small molecule antagonists of the kappa opioid receptor via a luminescent beta-arrestin assay - Set 5. [Related pubchem assays (depositor defined):AID1778, AID1785]; type: functional
[9] = target: T5, Runt-related transcription factor 1/Core-binding factor subunit beta (Homo sapiens, UniProt Q01196+Q13951); experiment: inhibitors of RUNX1 Runt–CBFb-SMMHC binding, biochemical, TR-FRET (AID 1438); type: protein assay
T5 sequence (Q01196 whole entry, the tested form may be a part): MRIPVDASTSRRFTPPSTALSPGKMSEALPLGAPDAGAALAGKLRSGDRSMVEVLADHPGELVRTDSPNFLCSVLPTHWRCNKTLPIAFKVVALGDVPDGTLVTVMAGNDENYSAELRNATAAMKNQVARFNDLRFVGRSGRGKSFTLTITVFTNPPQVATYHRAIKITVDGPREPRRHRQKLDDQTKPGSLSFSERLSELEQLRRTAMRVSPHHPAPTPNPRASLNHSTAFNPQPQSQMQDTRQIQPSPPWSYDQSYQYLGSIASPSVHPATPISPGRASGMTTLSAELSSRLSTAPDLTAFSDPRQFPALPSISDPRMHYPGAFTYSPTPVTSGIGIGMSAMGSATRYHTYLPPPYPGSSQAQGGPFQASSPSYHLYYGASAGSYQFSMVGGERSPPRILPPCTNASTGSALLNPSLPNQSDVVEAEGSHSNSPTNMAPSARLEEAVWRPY
T5 sequence (Q13951 whole entry, the tested form may be a part): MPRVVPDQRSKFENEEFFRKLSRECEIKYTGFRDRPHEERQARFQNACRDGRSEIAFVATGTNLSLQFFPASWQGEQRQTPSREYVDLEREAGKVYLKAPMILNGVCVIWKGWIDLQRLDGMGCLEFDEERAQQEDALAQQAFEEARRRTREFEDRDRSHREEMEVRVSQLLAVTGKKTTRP

[10] = target: T5, Runt-related transcription factor 1/Core-binding factor subunit beta; experiment: inhibitors of RUNX1 Runt–CBFb-SMMHC binding, primary screen, biochemical, FRET, Cerulean-Runt, Venus-CBFb-SMMHC, uHTS (AID 1434); type: protein assay;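 further: partner is the CBFb-SMMHC leukemia fusion protein rather than wild-type CBFb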
Ion channel NompC = Ion channel NompC (Danio rerio, UniProt Q7T1G6); experiment: Dose response cell-based high-throughput screening assay for agonists of the transient receptor potential channel N1 (TRPN1). [Related pubchem assays (depositor defined):AID1424, AID1448]; type: functional
Sequence of Ion channel NompC (Q7T1G6 whole entry): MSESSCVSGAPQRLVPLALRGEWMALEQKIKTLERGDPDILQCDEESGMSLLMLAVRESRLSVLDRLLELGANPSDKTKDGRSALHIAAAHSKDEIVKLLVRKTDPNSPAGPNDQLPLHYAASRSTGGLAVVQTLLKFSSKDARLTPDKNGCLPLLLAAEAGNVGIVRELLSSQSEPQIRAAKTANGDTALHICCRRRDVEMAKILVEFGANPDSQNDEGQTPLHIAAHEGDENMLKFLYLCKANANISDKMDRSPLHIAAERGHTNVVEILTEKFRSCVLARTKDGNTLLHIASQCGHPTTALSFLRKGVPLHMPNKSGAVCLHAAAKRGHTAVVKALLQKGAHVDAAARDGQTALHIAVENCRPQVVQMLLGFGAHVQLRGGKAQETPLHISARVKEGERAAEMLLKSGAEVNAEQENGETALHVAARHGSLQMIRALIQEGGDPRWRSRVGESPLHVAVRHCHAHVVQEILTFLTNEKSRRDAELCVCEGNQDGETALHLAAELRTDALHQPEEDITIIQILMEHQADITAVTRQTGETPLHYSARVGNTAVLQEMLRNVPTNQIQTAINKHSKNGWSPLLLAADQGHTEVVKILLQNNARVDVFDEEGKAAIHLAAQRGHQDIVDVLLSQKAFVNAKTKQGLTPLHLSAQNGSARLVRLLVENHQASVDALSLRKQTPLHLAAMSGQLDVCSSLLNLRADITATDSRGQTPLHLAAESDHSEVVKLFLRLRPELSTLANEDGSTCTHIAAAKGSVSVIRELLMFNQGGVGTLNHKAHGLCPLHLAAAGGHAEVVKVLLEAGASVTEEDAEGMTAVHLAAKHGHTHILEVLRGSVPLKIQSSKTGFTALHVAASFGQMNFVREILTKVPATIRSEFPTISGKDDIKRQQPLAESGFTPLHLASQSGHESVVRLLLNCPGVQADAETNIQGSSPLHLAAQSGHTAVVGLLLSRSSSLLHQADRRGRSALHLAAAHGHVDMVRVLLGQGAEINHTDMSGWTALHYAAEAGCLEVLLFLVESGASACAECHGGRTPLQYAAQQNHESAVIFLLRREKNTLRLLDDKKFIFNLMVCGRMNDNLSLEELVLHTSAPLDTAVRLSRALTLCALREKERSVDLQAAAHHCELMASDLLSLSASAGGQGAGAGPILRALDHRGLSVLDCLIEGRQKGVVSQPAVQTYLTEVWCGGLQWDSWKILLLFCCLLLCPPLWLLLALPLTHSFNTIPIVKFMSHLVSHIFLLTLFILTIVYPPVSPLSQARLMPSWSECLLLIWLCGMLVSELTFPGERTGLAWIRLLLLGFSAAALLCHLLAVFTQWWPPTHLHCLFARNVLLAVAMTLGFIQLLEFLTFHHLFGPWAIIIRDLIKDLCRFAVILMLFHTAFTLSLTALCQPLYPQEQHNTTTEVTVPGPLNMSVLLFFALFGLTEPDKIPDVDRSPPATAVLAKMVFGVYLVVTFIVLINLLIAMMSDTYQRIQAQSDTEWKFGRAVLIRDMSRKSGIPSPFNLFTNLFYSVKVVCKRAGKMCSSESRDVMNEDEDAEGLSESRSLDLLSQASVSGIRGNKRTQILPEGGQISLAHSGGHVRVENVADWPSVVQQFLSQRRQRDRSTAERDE

Mucolipin-3 = Mucolipin-3 (Homo sapiens, UniProt Q8TDD5); experiment: Fluorescence counterscreen assay for […] agonists: dose response cell-based high-throughput screening assay to identify agonists of the transient receptor potential channel ML3 (TRPML3). [Related pubchem assays: 1424, 1448 ]; type: functional
Sequence of Mucolipin-3 (Q8TDD5 whole entry): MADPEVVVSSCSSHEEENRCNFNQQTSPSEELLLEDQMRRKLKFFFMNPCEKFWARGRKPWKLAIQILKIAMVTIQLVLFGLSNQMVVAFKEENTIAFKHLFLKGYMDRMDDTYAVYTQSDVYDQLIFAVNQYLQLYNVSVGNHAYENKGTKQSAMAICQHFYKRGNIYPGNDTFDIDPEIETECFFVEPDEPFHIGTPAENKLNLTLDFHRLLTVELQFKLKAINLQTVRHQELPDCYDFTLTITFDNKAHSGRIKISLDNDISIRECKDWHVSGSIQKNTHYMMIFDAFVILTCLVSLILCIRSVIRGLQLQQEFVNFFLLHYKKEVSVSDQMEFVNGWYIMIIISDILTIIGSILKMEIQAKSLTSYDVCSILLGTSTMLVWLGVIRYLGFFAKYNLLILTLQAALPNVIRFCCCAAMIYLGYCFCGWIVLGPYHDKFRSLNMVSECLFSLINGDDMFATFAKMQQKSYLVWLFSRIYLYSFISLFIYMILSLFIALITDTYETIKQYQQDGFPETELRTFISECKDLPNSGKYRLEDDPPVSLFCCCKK

[11] = target: T6, Corticotropin-releasing factor receptor 2/Corticotropin-releasing factor-binding protein (Homo sapiens, UniProt P24387+Q13324); experiment: activators of CRF receptor 2 with binding protein – uHTS hits, confirmation (AID 602473); type: functional; settings: read-out: EC50_Mean
T6 sequence (Q13324 whole entry): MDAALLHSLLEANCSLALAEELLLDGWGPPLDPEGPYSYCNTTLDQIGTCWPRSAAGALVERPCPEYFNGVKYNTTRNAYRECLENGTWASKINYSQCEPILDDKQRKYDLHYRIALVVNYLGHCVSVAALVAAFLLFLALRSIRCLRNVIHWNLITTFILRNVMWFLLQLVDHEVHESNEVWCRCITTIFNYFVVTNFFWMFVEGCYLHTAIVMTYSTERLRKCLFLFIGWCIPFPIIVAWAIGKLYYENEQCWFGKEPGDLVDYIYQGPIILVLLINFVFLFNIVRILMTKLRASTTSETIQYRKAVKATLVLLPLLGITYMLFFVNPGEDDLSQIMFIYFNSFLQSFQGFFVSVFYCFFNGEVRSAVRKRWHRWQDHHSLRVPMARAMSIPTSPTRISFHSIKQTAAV
T6 sequence (P24387 whole entry): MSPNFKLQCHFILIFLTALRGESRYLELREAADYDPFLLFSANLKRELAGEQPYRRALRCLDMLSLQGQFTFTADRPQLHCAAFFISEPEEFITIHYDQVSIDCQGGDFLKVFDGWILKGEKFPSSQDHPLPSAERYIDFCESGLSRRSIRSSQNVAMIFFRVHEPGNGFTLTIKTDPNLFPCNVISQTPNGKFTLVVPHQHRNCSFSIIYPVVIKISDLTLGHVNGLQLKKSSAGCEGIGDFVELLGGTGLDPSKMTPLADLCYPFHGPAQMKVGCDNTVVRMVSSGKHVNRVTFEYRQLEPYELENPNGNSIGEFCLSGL
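Wherever CC50 is given: cells exposed to compound for 72 hours before luminescence readout.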

In the case of N#CC1=C(N)Oc2[nH]nc(-c3ccccc3)c2C1c1cccc(OC(=O)N2CCOCC2)c1 (stereo not drawn), the AC50 [1] is reported as 4.72 µM (active), the EC50 (Protein RecA) is reported as 1.19 µM (active) and the CC50 [2] is reported as 31.4 µM (active).
With c1ccc(CC2CCN(c3ncnc4sc(-c5ccccc5)cc34)CC2)cc1 the IC50 [3] was > 55.7 µM (inactive) and the IC50 [4] was > 55.7 µM (inactive).
For CC(C)c1ccc(S(=O)(=O)n2c(N)nc3ccccc32)cc1, the IC50 [5] was 0.495 µM (active), the IC50 [6] was > 20 µM (inactive) and the IC50 (Tumor necrosis factor) was > 20 µM (inactive). The IC50 (HEK293) was > 20 µM (inactive).
With CC(=O)Oc1ccc2c(C)cc(=O)oc2c1 the IC50 (H9c2) was 16.5 µM (active) and the IC50 (Coagulation factor XII) was > 50 µM (inconclusive).
For CC(C)N(CCNC(=O)c1ccc(CNS(=O)(=O)c2ccc(C#N)cc2)cc1)Cc1ccccc1, the IC50 [7] was 3.54 µM (active) and the IC50 [8] was 1.36 µM (active).
For Cc1cc(O)ccc1Nc1nc2ccccc2nc1Nc1ccc(O)cc1C, the IC50 [9] was 7.08 µM (active) and the IC50 [10] was 9.73 µM (active).
For COc1cccc(CN2CCN(Cc3cc4ccccc4[nH]3)CC2CCO)c1 (stereo not drawn), the EC50 (Ion channel NompC) was 5.32 µM (active), the EC50 (Mucolipin-3) was 5.42 µM (active) and the EC50 [11] was 15.1 µM (active).
